Earlier results as cited in patent US20040213782A1, “Compositions of an aquaporin modulating agent and an aqueous humor modulating agent for the treatment of elevated intraocular pressure” (Pharmacia Corporation, priority 2003, published 2004).

How the values were obtained:
[1] = tested on: AQP1; details: epididymis of rats; Yu et al. (2002)
[2] = among corticosteroids; ophthalmic or systemic administration
[3] = tested on: AQP2; details: kidney of cardiomyopathic hamsters; Wong and Tsui (2002)

Compound | expression of AQP2 [3] | further results
CC(=O)Nc1nnc(S(N)(=O)=O)s1 [acetazolamide] |  | level of AQP1 expression [1]: significant decrease
C[C@@H]1C[C@H]2[C@@H]3CCC4=CC(=O)C=C[C@]4(C)[C@@]3(F)[C@@H](O)C[C@]2(C)[C@@]1(O)C(=O)CO [dexamethasone] |  | increase in intraocular pressure [2]: most pronounced increase
CCOC(=O)[C@H](CCc1ccccc1)N[C@@H](C)C(=O)N1CCC[C@H]1C(=O)O [enalapril] | significant decrease | 
angiotensin II (DRVYIHPF; Angiotensin-2; UniProt P01019 25-32, looked up) [peptide that increases the expression of AQP2 in the kidney of cardiomyopathic hamsters] | increases | 
